Results published in ChEMBL document CHEMBL3507680, “University of Dundee, Gates Library screen for HepG2 cell viability”.

Assay: Human HepG2 cell viability assay in 384 well format
Type: toxicity, cell-based
Parameters: dose 125 nL, time 70.5 hour; cytotoxicity at 70.5 h: concentration not given beside the values
Details: HepG2 cells, read-out: Inhibition

Structure (SMILES)	cytotoxicity at 70.5 h [%]
COc1ccc(CNC(C)c2cnn(C)c2)cc1OC1CCCC1 (stereo not given)	-3.45
Cc1ccc(C(=O)N2C[C@H]3CCC[C@@]3(COc3ccccn3)C2)nc1	11.3
Cc1ccccc1NC(=O)N1CCN(C(=O)C2CC2)[C@@H]2CS(=O)(=O)C[C@@H]21	-6.63
Cc1n[nH]c(C)c1CNC(=O)NC1CCCN(c2ccccc2F)C1 (stereo not given)	6.33
Cc1ccsc1CN(CCN(C)C)C(=O)C1=NNC(=O)CC1	-9.85
Fc1ccccc1C1NCCc2cc3c(cc21)OCCO3 (stereo not given)	0.151
OCC1COCCN(Cc2cc(C3CCCCC3)no2)C1 (stereo not given)	-9.08
CSCC[C@H](NC(C)=O)c1nc(CCc2ccccc2)n[nH]1	-3.53
O=C(NC1CC1)N1C[C@H]2CN(c3ccccc3)C(=O)[C@H]2C1	4.91
CN(C)C(=O)COCc1cncc2c1CCN(Cc1cnn(C)c1)C2	-8.65
CCOC1CCN(C(=O)NCCc2ccn(-c3ccccc3)n2)CC1	-2.77
CN1Cc2ccccc2CC2(CCN(c3ncc(F)cn3)CC2)C1=O	-12.1
c1ccc(-c2nc3c(c(NCCCn4cncn4)n2)CCNCC3)nc1	-13.5
COCC1c2c(cnn2C)CCN1C(=O)c1cccn1C (stereo not given)	-6.36
O=C(O)c1ccc(CCNC(=O)C2(c3ccccc3)CC2)cc1	12.5
COCc1nc(C(=O)N2CCCC(n3nc(C)nc3C)C2)cs1 (stereo not given)	28.1
Cn1cccc1CN(C(=O)Cc1cccs1)C1CC1	-2.78
CCn1nc(CC(C)C)cc1C(=O)N1CCC2(CC1)[C@H](O)C[C@@H]2O	1.5
Cc1nn(C)c(N(C)C)c1CNCC(O)COc1ccc(F)cc1 (stereo not given)	2.45
CC(Nc1cccc(F)c1C#N)c1cccc(S(N)(=O)=O)c1 (stereo not given)	-8.67
CCCN1CCCn2nc(CNC(=O)CC3CCS(=O)(=O)C3)cc2C1 (stereo not given)	-3.24
CCC(NC(=O)Cn1ccc(=O)n(C)c1=O)c1ccccc1OC (stereo not given)	-7
CCOCCCn1c(NC(=O)c2cc(C)on2)nc2ccccc21	9.94
CCOc1cccc(CNc2ccccc2C(F)(F)F)c1O	13.7
CCC(Cn1ccnc1)n1cnc2c(C)csc2c1=O (stereo not given)	-14.3
CC(C)Cc1nc(CN2CCOC(Cn3cncn3)C2)no1 (stereo not given)	-8.48
Cn1ccnc1CN1CC[C@H](O)[C@@H](n2ccc(=O)[nH]c2=O)CC1	-3.14

Structure (SMILES)	cytotoxicity at 70.5 h [%]
COCc1cn(CC2CCN(Cc3nc(C)c[nH]3)CC2)nn1	-8.76
CN(Cc1nc2ccccc2n1C)CC1CCCN1c1cccnn1 (stereo not given)	-11.1
CC(C)c1nccn1CCCNC(=O)c1ccc(-c2cncnc2)nc1	-9.84
NC(=O)C1CCN(CC(=O)NCCn2cc(Cl)cn2)CC1	13.2
CC(C)OCc1ccc(CNc2cncc(-n3cccn3)n2)cc1	-5.97
Cc1noc(C)c1CN1CC2(CCN(Cc3c[nH]cn3)CC2)CC1=O	-2.12
O=C(c1ccnc(N2CCOC(C(F)(F)F)C2)c1)N1CCCC1 (stereo not given)	8.43
Cc1n[nH]c(C)c1CCc1n[nH]c(=O)n1Cc1cccs1	-0.375
CN(Cc1cccc(-n2cccn2)c1)Cc1c[nH]cn1	-0.523
CC(C)C1CN(S(=O)(=O)N(C)C)CCCN1Cc1ccc(F)cc1 (stereo not given)	2.12
CCOc1ncccc1NC(=O)c1ccc(C)s1	-7.78
CN(CC1COc2ccccc2O1)C(=O)NCCCn1cncn1 (stereo not given)	-4.69
CCS(=O)(=O)CC(=O)Nc1cccc2c1CN(CC(C)C)C2	-0.0392
CC(C)c1nc(CN(C)C2CCN(CCn3cc(C#N)cn3)C2)no1 (stereo not given)	-14.7
c1cncc(-c2nnn3c2COCC(CNCC2CCOCC2)C3)c1 (stereo not given)	8.92
COc1cccc(CCN2C[C@H]3CCNCC[C@H]3S2(=O)=O)c1	23.9
CSCCC(NC(N)=O)C(=O)N1CCC(Cc2ccccc2)CC1 (stereo not given)	-3.12
CC(O)CN(C)c1cc(C(F)(F)F)nc(-c2cccnc2)n1 (stereo not given)	-3.49
COCC(=O)N1CCO[C@H]2[C@H](OC)CC[C@@H]21	-16.2
O=C(CCNS(=O)(=O)c1ccc(F)cc1)NCc1ccoc1	-9.41
OC(COCc1ccccc1Cl)CN1CCC(c2ccn[nH]2)CC1 (stereo not given)	1.38
N#CC1(NC(=O)c2ccc(-c3nc(C4CC4)n[nH]3)cc2)CCC1	-16.7
CCNC(=O)C1CCCN(c2cccc(C(F)(F)F)n2)C1 (stereo not given)	21.5
COCCOc1ccnc(-c2noc([C@@H]3CCCN3CC(C)(C)C)n2)c1	2.83
CCS(=O)(=O)N1CCN(C(C)c2ccccc2OC)CC1 (stereo not given)	-10.2
O=C(C1CCCOC1)N(CC(F)F)c1cccc(Cl)c1 (stereo not given)	2.67
Cc1csc(CNc2nc3c(s2)c(C)nn3C)n1	-4.74

Structure (SMILES)	cytotoxicity at 70.5 h [%]
CCOCC1CN(Cc2cccs2)Cc2nn(C)cc21 (stereo not given)	-6.21
COc1ccc(Cl)cc1S(=O)(=O)N(C)CC(N)=O	-5
O=c1c2cn[nH]c2nc(SCCN2CCOCC2)n1-c1ccccc1	-7.75
COCCNC(=O)[C@@H]1C[C@@H]2CCN(c3ncccn3)C[C@H]2O1	24.2
CC(C)NC(=O)[C@@H]1CCO[C@@H]2CCN(c3ncccn3)C[C@@H]21	0.956
Cc1ccccc1OCCC(=O)N1CCCC(n2cncn2)C1 (stereo not given)	-6.17
CCn1ccnc1CN1CCOC(CNc2cccnn2)C1 (stereo not given)	-9.35
CN(CC1COc2ccccc2O1)C(=O)c1ccc(-c2cn[nH]c2)nc1 (stereo not given)	-2.63
Cc1ccc(NC(C)C(=O)N(C)Cc2cccc(F)c2)cc1C(N)=O (stereo not given)	-4.3
Cc1cnccc1-c1cnn(CCNC(=O)c2ccncc2)c1C1CC1	17.4
CCCN1C(=O)C2(CCCCC2)NC1c1c[nH]nc1-c1cccnc1 (stereo not given)	12.8
CCC[C@H]1CN(c2nc(CO)cs2)C[C@@H]1NC(=O)C1CCC1	-5.73
Cn1cc(CCNC(=O)c2cc3ccccc3nc2N2CCCC2)cn1	3.18
CCc1cc(C)nc(N2CCN(C(C)c3nc(C)no3)CC2)n1 (stereo not given)	-7.01
N#Cc1cccc(S(=O)(=O)NC(=O)CCOCC(F)(F)F)c1	-3.71
CC(C)N(C(=O)c1ccccc1-c1nc2c([nH]1)CCNC2)C(C)C	5.55
C[S+]([O-])c1nncn1CC(=O)c1ccc(Br)cc1 (stereo not given)	-5.18
CCNc1cc2c(nn1)CCN(C(=O)c1cc(C)n(C3CC3)c1C)C2	-0.806
COCc1nc2n(n1)CCCC2Nc1nc(C2CC2)ns1 (stereo not given)	1.93
Cn1cc(C(=O)N2CC[C@@H]3[C@@H]2CCN3Cc2cccc(F)c2)cn1	-6.38
CN(Cc1nnc(-c2ccco2)o1)Cc1nc2c(s1)CCCC2	-11.2
CC(C)N(C)S(=O)(=O)N(C)Cc1ccc2c(c1)OCO2	20.7
N[C@H]1CN(S(=O)(=O)c2cccnc2)C[C@@H]1C1CC1	-4.49
CC(C)c1nnc2ccc(N3CCC(C(=O)NC4CC4)CC3)nn12	-25
Cc1oc(-c2cc(F)cc(F)c2)nc1CN1C[C@@H](C)NC[C@@H]1C	-11.7
CCOC(=O)c1nc(COc2ccc(CC(N)=O)cc2)no1	-10.5
